Reference: ChEMBL document CHEMBL5137010, “N-Acetyl-Cysteinylated Streptophenazines from Streptomyces” (J Nat Prod, 2022)
Converted amounts (≈) assume the structure as drawn.

What was measured:
Micrococcus luteus = test: Antibacterial activity against Micrococcus luteus L108 assessed as inhibition of bacterial growth at 10 hrs by plate reader analysis; format: functional
Staphylococcus aureus = test: Antibacterial activity against Staphylococcus aureus L100 assessed as inhibition of bacterial growth at 10 hrs by plate reader analysis; format: functional
Streptococcus pneumoniae = test: Antibacterial activity against Streptococcus pneumoniae L44 assessed as inhibition of bacterial growth at 10 hrs by plate reader analysis; format: functional
Pseudomonas aeruginosa = test: Antibacterial activity against Pseudomonas aeruginosa ATCC 27853 assessed as inhibition of bacterial growth at 10 hrs by plate reader analysis; format: functional
[1] = Cytotoxicity against HEK293 cells assessed as reduction in cell viability incubated for 24 hrs by alamar blue assay; format: toxicity, cell-based; conditions: human
Enterococcus faecium = test: Antibacterial activity against Enterococcus faecium L568 assessed as inhibition of bacterial growth at 10 hrs by plate reader analysis; format: functional
[2] = Cytotoxicity against human Caco-2 cells assessed as reduction in cell viability incubated for 24 hrs by alamar blue assay; format: toxicity, cell-based
Escherichia coli = test: Antibacterial activity against Escherichia coli L4242 harboring delta tolC mutant assessed as inhibition of bacterial growth at 10 hrs by plate reader analysis; format: functional

SMILES: COC(=O)c1cccc2nc3c([C@@H](SC[C@H](NC(C)=O)C(=O)O)[C@@H](CCCCC(C)C)C(=O)OC)cccc3nc12
- MIC (Micrococcus luteus): 68 µM (≈ 39.7 µg/mL)
- MIC (Staphylococcus aureus): 43 µM (≈ 25.1 µg/mL)
- MIC (Streptococcus pneumoniae): 12 µM (≈ 7 µg/mL)
- MIC (Pseudomonas aeruginosa): 428 µM (≈ 250 µg/mL)
- IC50 at 24 h [1]: > 220 µM
- MIC (Enterococcus faecium): 428 µM (≈ 250 µg/mL)
- IC50 at 24 h [2]: 154 µM
- MIC (Escherichia coli): 291 µM (≈ 170 µg/mL)
